This is an account of results in patent publication US10258639B2, “Methods for treating insulin resistance and for sensitizing patients to GLP1 agonist therapy” (Research Development Foundation, priority 2014, dated 2019).

Each structure is given as a SMILES string.

The data set relates to INS1 cells. In words: RNAseq of INS1 cells infected with ACREB compared to GFP and stimulated with FSK. The conditions noted are these: for Diras2 fold induction / Irs2 fold induction / MafA fold induction / Nr4a2 fold induction: FSK vs control; for Diras2 RNAseq value, FSK / Irs2 RNAseq value, FSK / MafA RNAseq value, FSK / Nr4a2 RNAseq value, FSK: stimulated with FSK. The format is cell-based, rat. More on the design: Irs2 RNAseq value, FSK / MafA RNAseq value, FSK / Nr4a2 RNAseq value, FSK / Diras2 RNAseq value, FSK: unit not given here. How it is done:
Transcriptome-wide studies were performed to identify CREB target genes that promote insulin expression and secretion. […] INS-1 insulinoma cells were cultured in RPMI (corning cellgro) containing 10% fetal bovine serum (Gemini Bio Products), 100 μg/mL penicillin-streptomycin and 1 mM sodium pyruvate (corning cellgro). MIN6 cells were grown in DMEM (corning cellgro) with 10% FBS, 100 μg/mL penicillin-streptomycin and 70 uM beta-mercaptoethanol. For chronic glucose experiments, cells were maintained under low (2.8 mM) or high (20 mM) glucose for 3 days. Exendin-4 (10 nM), Forskolin (10 μM), KCl (40 mM), DMOG (1 mM) and rapamycin (50 nM) were added to cells as indicated. Cellular cAMP levels were measured using an ELISA kit (Cayman Chemical Company) according to manufacturer's instructions. Total RNAs from cells or primary islets were extracted using Trizol and cDNA was generated using the Transcriptor First Strand cDNA Synthesis kit (Roche Applied Science). cDNAs were quantified on a lightcycler 480 instrument (Roche Applied Science). Gene expression data were presented relative to the expression of housekeeping gene L32 (rat samples) and 18S (mouse and human islets). RNA-Seq libraries were prepared using the mRNA isolation protocol and the NEBNext-Ultra kits from New England Biolabs following the manufacturer's protocols. Libraries were quantitated by Qubit (Invitrogen), and run on a MiSeq instrument with paired-end 75 bp reads using v3 chemistry (Illumina) Data were analyzed by tophat2 and cuffdiff against the mouse mm10 genome build. The GEO accession number for RNAseq studies reported in the paper is GSE60158.

Consider `C=C[C@@]1(C)CC(=O)[C@]2(O)[C@@]3(C)[C@@H](O)CCC(C)(C)[C@@H]3[C@H](O)[C@H](OC(C)=O)[C@@]2(C)O1` [FSK, Forskolin], for which, for the setting “INS1 cells infected with ACREB”, the Diras2 fold induction is listed as 1.7 fold, the Irs2 fold induction was found to be 2.3 fold, the MafA fold induction is reported as 3.7 fold and the Nr4a2 fold induction is listed as 6.3 fold. Further, under “INS1 cells infected with ACREB”, the “Diras2 RNAseq value, FSK” value is 109.5; the “Irs2 RNAseq value, FSK” value is listed as 38.8; the “MafA RNAseq value, FSK” value is recorded as 90.2; the “Nr4a2 RNAseq value, FSK” value stood at 5.5. Under “INS1 cells infected with GFP”, this compound gave a Diras2 fold induction of 11.5 fold, an Irs2 fold induction of 5.6 fold, a MafA fold induction of 8.7 fold and a Nr4a2 fold induction of 56.6 fold. Further, where the note is “INS1 cells infected with GFP”, the “Diras2 RNAseq value, FSK” value stood at 519.7; the “Irs2 RNAseq value, FSK” value is on record as 289.9; the “MafA RNAseq value, FSK” value amounted to 474.4; the “Nr4a2 RNAseq value, FSK” value is given as 106.5.
